Reference: patent US6355799B1, “Substituted benzene compounds, process for their preparation, and herbicidal and defoliant compositions containing them” (ISK Americas Incorporated, priority 1997, dated 2002)

Experiments:
Format in all cases: in vivo
[1] = system: lambsquarters (Chenopodium album, CHEAL); experiment: Pre-emerge test, greenhouse herbicide activity screening; details: rating scale 0-100, 14 days after application
Summary of the method: (§1)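 Sandy loam pots; pre-emerge: sown 1 d pre-spray, surface-watered after, then bottom-watered. Post-emerge: sown 8–21 d before, 2–3 leaf stage, + 0.25% v/v NIS, bottom-watered. Acetone, 187 l/ha track spray, 15–1000 g ai/ha. 0–100 injury score, day 14.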

[2] = system: ivyleaf morningglory (Ipomoea hederacea, IPOHE); experiment: as above; details: rating scale 0-100, 14 days after application
Summary of the method: as §1

[3] = system: green foxtail (Setaria viridis, SETVI); experiment: as above; details: rating scale 0-100, 14 days after application
Summary of the method: as §1

[4] = system: sicklepod (Cassia obtusifolia, CASOB); experiment: as above; details: rating scale 0-100, 14 days after application
Summary of the method: as §1

[5] = system: barnyardgrass (Echinochloa crus-galli, ECHCG); experiment: as above; details: rating scale 0-100, 14 days after application
Summary of the method: as §1

[6] = system: large crabgrass (Digitaria sanguinalis, DIGSA); experiment: as above; details: rating scale 0-100, 14 days after application
Summary of the method: as §1

[7] = system: velvetleaf (Abutilon theophrasti, ABUTH); experiment: as above; details: rating scale 0-100, 14 days after application
Summary of the method: as §1

[8] = system: johnsongrass (Sorghum halepense, SORHA); experiment: as above; details: rating scale 0-100, 14 days after application
Summary of the method: as §1

[9] = system: upland rice (Oryza sp., var. Tebonnet, RICE); experiment: Post-emerge test, crop safety; details: rating scale 0-100 (0 no damage, 100 complete death), 14 days after application
Summary of the method: as §1

[10] = system: field corn (Zea mays L., var. Dekalb 535, CORN); experiment: Post-emerge test, crop safety; details: rating scale 0-100 (0 no damage, 100 complete death), 14 days after application
Summary of the method: as §1

[11] = system: redroot pigweed (Amaranthus retroflexus, AMARE); experiment: Pre-emerge test, greenhouse herbicide activity screening; details: rating scale 0-100, 14 days after application
Summary of the method: as §1

[12] = system: redroot pigweed (Amaranthus retroflexus, AMARE); experiment: Post-emerge test, greenhouse herbicide activity screening; details: rating scale 0-100 (0 no damage, 100 complete death), 14 days after application
Summary of the method: (§2)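 Herbicidal damage is scored 0 (none) to 100 (complete plant death) two weeks after a simulated field spray. Rates span 15–1000 g ai/ha, delivered in acetone at 187 l/ha. For post-emergence treatments, plants have 2–3 leaves and the spray carries 0.25% v/v non-ionic surfactant.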

[13] = system: lambsquarters (Chenopodium album, CHEAL); experiment: as above; details: rating scale 0-100 (0 no damage, 100 complete death), 14 days after application
Summary of the method: as §2

[14] = system: ivyleaf morningglory (Ipomoea hederacea, IPOHE); experiment: as above; details: rating scale 0-100 (0 no damage, 100 complete death), 14 days after application
Summary of the method: as §2

[15] = system: green foxtail (Setaria viridis, SETVI); experiment: as above; details: rating scale 0-100 (0 no damage, 100 complete death), 14 days after application
Summary of the method: as §2

[16] = system: sicklepod (Cassia obtusifolia, CASOB); experiment: as above; details: rating scale 0-100 (0 no damage, 100 complete death), 14 days after application
Summary of the method: as §2

[17] = system: barnyardgrass (Echinochloa crus-galli, ECHCG); experiment: as above; details: rating scale 0-100 (0 no damage, 100 complete death), 14 days after application
Summary of the method: as §2

[18] = system: large crabgrass (Digitaria sanguinalis, DIGSA); experiment: as above; details: rating scale 0-100 (0 no damage, 100 complete death), 14 days after application
Summary of the method: as §2

[19] = system: common ragweed (Ambrosia artemisizfolia L., AMBEL); experiment: as above; details: rating scale 0-100 (0 no damage, 100 complete death), 14 days after application
Summary of the method: as §2

[20] = system: velvetleaf (Abutilon theophrasti, ABUTH); experiment: as above; details: rating scale 0-100 (0 no damage, 100 complete death), 14 days after application
Summary of the method: as §2

[21] = system: johnsongrass (Sorghum halepense, SORHA); experiment: as above; details: rating scale 0-100 (0 no damage, 100 complete death), 14 days after application
Summary of the method: as §2

[22] = system: upland rice (Oryza sp., var. Tebonnet, RICE); experiment: Pre-emerge test, crop safety; details: rating scale 0-100, 14 days after application
Summary of the method: (§3)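 Compounds in acetone were track-sprayed at 187 l/ha, 15–1000 g ai/ha, onto sandy loam pots. Pre-emerge seeds were sown one day before spraying, with surface watering afterwards. Post-emerge plants were at the 2–3 leaf stage and sprayed with 0.25% v/v non-ionic surfactant. Injury was rated 0–100 at 14 days.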

[23] = system: field corn (Zea mays L., var. Dekalb 535, CORN); experiment: Pre-emerge test, crop safety; details: rating scale 0-100, 14 days after application
Summary of the method: as §3

`CCOC(=O)C(Br)Cc1c(OC)c(Cl)cc(F)c1-n1c(=O)cc(C(F)(F)F)n(C)c1=O` (single isomer, unassigned) [14-33] was tested, and the “Pre-emerge herbicidal activity, phytotoxicity rating CHEAL” value ([1]; 63 g ai/ha) was 0, the “Pre-emerge herbicidal activity, phytotoxicity rating CHEAL” value ([1]; 250 g ai/ha) was 90 and the “Pre-emerge herbicidal activity, phytotoxicity rating IPOHE” value ([2]; 63 g ai/ha) was 0. For the same compound, the “Pre-emerge herbicidal activity, phytotoxicity rating IPOHE” value ([2]; 250 g ai/ha) was 0, the “Pre-emerge herbicidal activity, phytotoxicity rating SETVI” value ([3]; 63 g ai/ha) was 0 and the “Pre-emerge herbicidal activity, phytotoxicity rating SETVI” value ([3]; 250 g ai/ha) was 50. The “Pre-emerge herbicidal activity, phytotoxicity rating CASOB” value ([4]; 63 g ai/ha) was 0, the “Pre-emerge herbicidal activity, phytotoxicity rating CASOB” value ([4]; 250 g ai/ha) was 0 and the “Pre-emerge herbicidal activity, phytotoxicity rating ECHCG” value ([5]; 63 g ai/ha) was 0. For the same compound, the “Pre-emerge herbicidal activity, phytotoxicity rating ECHCG” value ([5]; 250 g ai/ha) was 0, the “Pre-emerge herbicidal activity, phytotoxicity rating DIGSA” value ([6]; 63 g ai/ha) was 0 and the “Pre-emerge herbicidal activity, phytotoxicity rating DIGSA” value ([6]; 250 g ai/ha) was 99. For the same compound, the “Pre-emerge herbicidal activity, phytotoxicity rating ABUTH” value ([7]; 63 g ai/ha) was 20, the “Pre-emerge herbicidal activity, phytotoxicity rating ABUTH” value ([7]; 250 g ai/ha) was 90 and the “Pre-emerge herbicidal activity, phytotoxicity rating SORHA” value ([8]; 63 g ai/ha) was 0. For the same compound, the “Pre-emerge herbicidal activity, phytotoxicity rating SORHA” value ([8]; 250 g ai/ha) was 30, the “Post-emerge phytotoxicity rating RICE (crop damage)” value ([9]; Rate 63 g ai/ha) was 0 and the “Post-emerge phytotoxicity rating RICE (crop damage)” value ([9]; Rate 250 g ai/ha) was 0. The “Post-emerge phytotoxicity rating CORN (crop damage)” value ([10]; Rate 63 g ai/ha) was 10, the “Post-emerge phytotoxicity rating CORN (crop damage)” value ([10]; Rate 250 g ai/ha) was 95 and the “Pre-emerge herbicidal activity, phytotoxicity rating AMARE” value ([11]; 63 g ai/ha) was 100. For the same compound, the “Pre-emerge herbicidal activity, phytotoxicity rating AMARE” value ([11]; 250 g ai/ha) was 100, the “Post-emerge Herbicidal Activity, phytotoxicity rating AMARE” value ([12]; Rate 63 g ai/ha) was 100 and the “Post-emerge Herbicidal Activity, phytotoxicity rating AMARE” value ([12]; Rate 250 g ai/ha) was 100. The “Post-emerge Herbicidal Activity, phytotoxicity rating CHEAL” value ([13]; Rate 63 g ai/ha) was 20, the “Post-emerge Herbicidal Activity, phytotoxicity rating CHEAL” value ([13]; Rate 250 g ai/ha) was 70 and the “Post-emerge Herbicidal Activity, phytotoxicity rating IPOHE” value ([14]; Rate 63 g ai/ha) was 20. For the same compound, the “Post-emerge Herbicidal Activity, phytotoxicity rating IPOHE” value ([14]; Rate 250 g ai/ha) was 20, the “Post-emerge Herbicidal Activity, phytotoxicity rating SETVI” value ([15]; Rate 63 g ai/ha) was 40 and the “Post-emerge Herbicidal Activity, phytotoxicity rating SETVI” value ([15]; Rate 250 g ai/ha) was 90. The “Post-emerge Herbicidal Activity, phytotoxicity rating CASOB” value ([16]; Rate 63 g ai/ha) was 0, the “Post-emerge Herbicidal Activity, phytotoxicity rating CASOB” value ([16]; Rate 250 g ai/ha) was 0 and the “Post-emerge Herbicidal Activity, phytotoxicity rating ECHCG” value ([17]; Rate 63 g ai/ha) was 100. The “Post-emerge Herbicidal Activity, phytotoxicity rating ECHCG” value ([17]; Rate 250 g ai/ha) was 100, the “Post-emerge Herbicidal Activity, phytotoxicity rating DIGSA” value ([18]; Rate 63 g ai/ha) was 70 and the “Post-emerge Herbicidal Activity, phytotoxicity rating DIGSA” value ([18]; Rate 250 g ai/ha) was 100. For the same compound, the “Post-emerge Herbicidal Activity, phytotoxicity rating AMBEL” value ([19]; Rate 63 g ai/ha) was 0, the “Post-emerge Herbicidal Activity, phytotoxicity rating AMBEL” value ([19]; Rate 250 g ai/ha) was 100 and the “Post-emerge Herbicidal Activity, phytotoxicity rating ABUTH” value ([20]; Rate 63 g ai/ha) was 90. The “Post-emerge Herbicidal Activity, phytotoxicity rating ABUTH” value ([20]; Rate 250 g ai/ha) was 100, the “Post-emerge Herbicidal Activity, phytotoxicity rating SORHA” value ([21]; Rate 63 g ai/ha) was 10 and the “Post-emerge Herbicidal Activity, phytotoxicity rating SORHA” value ([21]; Rate 250 g ai/ha) was 95. For the same compound, the “Pre-emerge phytotoxicity rating, crop damage RICE” value ([22]; 63 g ai/ha) was 0, the “Pre-emerge phytotoxicity rating, crop damage RICE” value ([22]; 250 g ai/ha) was 10 and the “Pre-emerge phytotoxicity rating, crop damage CORN” value ([23]; 63 g ai/ha) was 10. The “Pre-emerge phytotoxicity rating, crop damage CORN” value ([23]; 250 g ai/ha) was 20.
